Test results taken from patent US20260091147A1, “METHOD FOR DETECTING INNATE IMMUNE ACTION IN VIVO USING GPR84-PET” (The Board of Trustees of the Leland Standford Junior …, priority 2023, published 2026).

What was measured:
[1] = tested on: GPR84-positive immune cells; assay: PET/CT in B16F1 melanoma brain metastasis model, with or without anti-PD-1 and anti-CTLA-4; type: in vivo, mouse; conditions: anti-PD-1 and anti-CTLA-4, day 9
Description: Six-to-eight-week-old female C57BL/6 mice were injected subcutaneously with 0.25×10^6 B16F1 melanoma cells on the right flank to generate extracranial tumors. After two days of extracranial tumor inoculation, 5×10^3 B16F1 melanoma cells were stereotactically injected into the striatum. Five days after intracranial tumor inoculation, mice were randomized into treatment (n=4) vs no treatment (n=4) groups based on the intracranial bioluminescence signals and monitored daily starting on day 5 for extracranial tumor volume changes. On days 5, 7 and 9 post-intracranial tumor inoculation, mice in the treatment group were treated with anti-PD-1 and anti-CTLA-4 (200 μg via intraperitoneal injection). T2-weighted MRI (Bruker) with a CryoProbe was performed on day 9 after intracranial tumor inoculation to identify brain tumor region of interest. Following MRI, mice underwent PET/CT imaging on the GNEXT PET/CT (Sofie). 100-125 μCi of [^18F]MGX-110S was injected for a 10-min static PET scan followed by CT. Mice were then perfused and organs of interest were dissected and analyzed via gamma counting. Region of interest analysis of the PET images was performed using a 3D volume drawing mode around the intracranial and extracranial tumors (Inveon Research Workspace).

GPR84 [2] = target: GPR84 (Homo sapiens, UniProt Q9NQS5); assay: In vitro autoradiography of human colon sections, active UC vs healthy; type: binding; design: from tissue; host or cells: human colon sections, active ulcerative colitis and matched healthy samples; conditions: for tracer binding in active UC colon tissue vs matched healthy samples: 5 μm sections; for tracer signal in UC colon tissue after pre-blocking with GLPG1205: 1000× GLPG1205 by mass
Description: To investigate alterations in GPR84 mRNA expression under pro-inflammatory conditions, quantitative polymerase-chain reaction was performed using mouse brain and human monocyte-derived macrophage cells (hMDMs) treated with lipopolysaccharides (LPS) 24 hr prior to RNA extraction. [^11C]GLPG38 and [^18F]MGX-110S were made via [^11C]methylation of the desmethyl precursor and by copper mediated [^18F]fluorination of Bpin precursor respectively. Binding specificities of both tracers were assessed using human GPR84-stably-expressing human embryonic kidney cells (HEK-293) versus control HEK-293 cells. [^11C]GLPG38 binding was also assessed in hMDMs+/−treatment with LPS. Dynamic PET/CT imaging of healthy mice was commenced just prior to injection of [^11C]GLPG38 (100-150 μCi) or [^18F]MGX-110S (60-120 μCi) to determine biodistribution and kinetics. In vitro autoradiography (ARG) of human colon sections (5 μm) was conducted to test the ability of each tracer to detect innate immune activation in active UC.

[3] = healthy rhesus macaque, n=1
Description: The animal was anesthetized in the home cage with Telazol and transported to the PET facility, where the subject was intubated for mechanical ventilation; anesthesia was continued with isoflurane and maintained throughout the duration of the PET scan. A venous catheter was inserted into one hind limb and the monkey was placed on the PET gantry with its head secured to prevent motion artifacts. […] Emission data were collected beginning with the injection and continued for 60 minutes. Vitals (HR, SPO2, EtCO2 and respiratory rate) were collected for the entire duration of the scan. Data were corrected for attenuation and scatter and reconstructed using the three-dimensional-maximum a priori method (3D MAP algorithm). A ROI was defined for the whole brain on multiple planes by using a summed image. The volumetric ROI was then applied to a full dynamic data set to generate a TAC.

GPR84 [4] = target: T1, GPR84 (Mus musculus, UniProt Q8CIM5); assay: Ex vivo autoradiography of brain sections from LPS-treated mice; type: in vivo
T1 construct: tissue Jackson Laboratories; host or cells: female C57BL/6J mice (LPS, saline, EAE or naive): brain, spinal cord and peripheral organs
Description: (§1) To determine KD of GLPG38, a competitive binding assay was performed using a membrane preparation from cells expressing GPR84-Gi in addition to [^3H]G9543, a known GPR84 antagonist. [^11C]GLPG38 was then radiosynthesized via [^11C]methylation of desmethyl precursor using [^11C]methyl iodide. Binding specificity of [^11C]GLPG38 was assessed using human GPR84-stably-expressing human embryonic kidney cells (HEK-293) versus control HEK-293 cells. For animal studies, sepsis was induced in female C57BL/6J mice via intraperitoneal injection of lipopolysaccharide (LPS, 10 mg/kg); vehicle-treated mice were injected with saline alone. Dynamic 60 min PET/CT imaging was performed 24 hr following LPS-administration using [^11C]GLPG38. Subsequently, mice were perfused with PBS to remove blood, and radioactive signal was assessed in CNS and peripheral tissues via gamma counting. Ex vivo autoradiography of sagittal mouse brain sections was conducted to obtain high resolution images of [^11C]GLPG38 binding. To investigate alterations in GPR84 mRNA expression, quantitative polymerase-chain reaction was performed using mouse brain tissue and human monocyte-derived macrophage cells stimulated with LPS 24 hr prior to RNA extraction.
Ex vivo Audoradiography Confirms ^11C-MGX-10S Specificity.

GPR84 [5] = target: T1, GPR84; assay: Dynamic PET/CT of brain in LPS-induced systemic inflammation vs saline, with or without GLPG1205 block; type: in vivo; conditions: LPS 10 mg/kg, 24 h
Description: as §1, with “Binding specificity of [^11C]GLPG38 was assessed using human GPR84-stably-expressing human embryonic kidney cells (HEK-293) versus control HEK-293 cells. For animal studies, sepsis was induced in female C57BL/6J mice via intraperitoneal injection of lipopolysaccharide (LPS, 10 mg/kg); vehicle-treated mice were injected with saline alone.” left out
The count densities were averaged for all volumes of interest at each time point to obtain a time-activity curve (TAC). The TACs were normalized to injected dose, as measured by a CRC-15 PET dose calibrator (Capintec Inc.), and expressed as % injected dose per gram (% ID/g), assuming 1 g/mL. CT was performed in GNEXT depth of interaction (DOI) dual-layer detector system. Scintica VivoQuant software was used to visualize radiotracer uptake and define the 3D volumes of interest. 3D maximum intensity projection (MIP) PET/CT images were created using IRW software.
A range of doses (0.65, 0.75, and 0.90 mg/kg) of GLPG1205 were used to investigate whether the blocking was dose-dependent. […] GLPG1205 was injected intra-venously 10 min prior to radiotracer injection (n=4).

T1 sequence (Q8CIM5 whole entry): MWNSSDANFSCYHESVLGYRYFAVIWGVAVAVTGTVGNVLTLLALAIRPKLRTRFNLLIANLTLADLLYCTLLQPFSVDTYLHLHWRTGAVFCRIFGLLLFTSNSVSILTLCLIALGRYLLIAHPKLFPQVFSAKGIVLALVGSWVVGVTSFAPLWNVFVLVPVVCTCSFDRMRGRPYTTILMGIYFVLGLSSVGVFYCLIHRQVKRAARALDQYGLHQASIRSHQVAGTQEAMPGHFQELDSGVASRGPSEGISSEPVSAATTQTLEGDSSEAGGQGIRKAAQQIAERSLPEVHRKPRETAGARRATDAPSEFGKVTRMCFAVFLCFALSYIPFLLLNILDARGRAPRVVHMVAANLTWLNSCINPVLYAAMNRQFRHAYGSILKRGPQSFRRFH
Sequence of GPR84 (Homo sapiens, UniProt Q9NQS5) (Q9NQS5 whole entry): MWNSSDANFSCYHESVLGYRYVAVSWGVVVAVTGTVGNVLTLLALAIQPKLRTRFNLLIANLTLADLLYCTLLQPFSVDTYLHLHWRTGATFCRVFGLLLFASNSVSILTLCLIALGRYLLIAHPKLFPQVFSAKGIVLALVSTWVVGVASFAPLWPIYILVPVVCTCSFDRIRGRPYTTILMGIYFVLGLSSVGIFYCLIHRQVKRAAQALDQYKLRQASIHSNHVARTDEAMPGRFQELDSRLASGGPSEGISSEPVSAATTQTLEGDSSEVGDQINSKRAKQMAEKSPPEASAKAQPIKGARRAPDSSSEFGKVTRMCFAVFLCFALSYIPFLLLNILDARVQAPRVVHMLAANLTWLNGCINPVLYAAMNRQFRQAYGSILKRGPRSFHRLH

| SMILES | PET signal in intracranial tumor, untreated vs immunotherapy-treated mouse [1] | tracer binding in active UC colon tissue vs matched healthy samples (GPR84 [2]) | tracer signal in UC colon tissue after pre-blocking with GLPG1205 (GPR84 [2]) | peak whole-brain uptake at 4 minutes post injection [3] [SUV] | whole-brain level after washout over 60 min [3] [SUV] | tracer binding in LPS brain sections after pre-blocking with GLPG1205 (GPR84 [4]; GLPG1205 5 mg/kg ([11C]GLPG38) or 1 mg/kg (11C-MGX-10S)) | tracer binding in brain sections, LPS-treated vs vehicle mice (GPR84 [4]; mouse, in vivo) | brain PET signal in LPS-treated vs saline-treated mice at 40-60 min post injection (GPR84 [5]) |
| --- | --- | --- | --- | --- | --- | --- | --- | --- |
| O=c1nc(OC[C@@H]2COCCO2)cc2n1CCc1cc([18F])ccc1-2 [^18F-MGX-110S] | significantly elevated signal | marked increase of binding | markedly attenuated |  |  |  |  |  |
| Cc1cc2c(cc1O[11CH3])CCn1c-2c(C)c(OC[C@@H]2COCCO2)cc1=O [[^11C]GLPG38] |  | marked increase of binding | markedly attenuated | 3.3 | 1.47 | substantial reduction | marked increase | significantly elevated |
